Measurements reported in paper PMC7586797, “Phase 1 Study to Evaluate the Effect of the Investigational Anticancer Agent Sapanisertib on the QTc Interval in Patients With Advanced Solid Tumors” (Clinical Pharmacology in Drug Development, 2020).
Where “and” joins values, the source holds several entries; their conditions need not be identical. Equal values may be shown once.

Assays:
[1] = test system: patients with advanced solid tumors; assay: Dedicated QTc study: serial triplicate Holter ECGs, change from time-matched baseline; format: in vivo, human; conditions: for LSM QTcF Change (95% UCB) from time-matched baseline / LSM QTcI Change (95% UCB) from time-matched baseline / LSM heart rate change (95% UCB) from time-matched baseline: 40 mg single oral dose
Procedure: The study was conducted at 5 centers across the United States (Montefiore Medical Center, Bronx, New York; Washington University School of Medicine, Saint Louis, Missouri; Stephenson Cancer Center, University of Oklahoma, Oklahoma City, Oklahoma; Mary Crowley Cancer Research Center, Dallas, Texas; and Florida Cancer Specialists/Sarah Cannon Research Institute, Sarasota, Florida) to evaluate the effect of a single oral dose of sapanisertib (40 mg) on the electrocardiographic QT/QTc interval in patients with advanced solid tumors (NCT02197572, clinicaltrials.gov). The primary end point was change from time‐matched baseline in the QTc interval (ΔQTc).
Patients reported to the study sites on day –1 for collection of serial baseline triplicate ECGs prior to sapanisertib administration (described in the ECG Assessments section). […] The patients were equipped with 12 ECG leads to continuously record patient ECG data onto a Holter H12+ ECG recorder. All procedures that were followed on day –1 were consistent with procedures expected for day 1, with the exception of plasma sample collection for PK assessments, since no sapanisertib was administered on day –1. After collection of the 10‐hour time point ECG on day –1, the patients were furloughed from the study site with Holter recorders still attached. These Holter recorders were to remain attached overnight to continue to collect ECG data into day 1.
(§1) On cycle 1 day 1, triplicate ECGs and plasma samples for PK were collected from patients ≤15 minutes prior to dosing and at 15 minutes; 30 minutes; and 1‐, 1.5‐, 2‐, 2.5‐, 3‐, 4‐, 6‐, 8‐, and 10‐hour time points after receiving a single oral dose of 40‐mg sapanisertib. The Holter recorders and ECG leads were removed from patients after collection of the 10‐hour time point ECG on day 1, following which patients were furloughed from site. Additional collections of ECGs and plasma samples for PK were conducted at 24 (cycle 1 day 2) and 48 hours (cycle 1 day 3) after dosing. After the first week, that is, cycle 1 day 8, patients had the option to continue to receive treatment with sapanisertib at a dose of 30 mg once weekly in continuous 28‐day cycles until disease progression, unacceptable toxicity, withdrawal of consent, or completion of the 12‐month maximum study duration.
To enable collection of time‐matched ECG and PK data before and after sapanisertib administration, patients reported to the study sites on day –1, during which ECG leads (12 leads) and Holter H12+ ECG recorders were attached. Each planned ECG collection time point was preceded by a 5‐minute supine rest period, after which triplicate ECGs were extracted from the Holter recorders at approximately 2‐ to 5‐minute intervals. Serial triplicate ECGs were collected from 0 to 10 hours, matched to the planned dosing on cycle 1 day 1 predose and postdose ECG and PK time points, to characterize the baseline ECG and QTc interval. All triplicate ECGs were extracted and read centrally (Biotelemetry, Malvern, Pennsylvania). All blood draws for PK were collected after the triplicate ECG collection period.
The baseline characterization of serial triplicate ECG allowed for patient‐specific individual heart rate correction (QTcI) in addition to the Fridericia's ( QTcF=QT/RR3 ) correction that is commonly used in clinical practice. The patient‐specific slopes were calculated using all pairs of QT and RR (time elapsing between two consecutive R waves in an ECG) interval data collected on day –1 and estimated using the linear regression expression: logQT=loga+b∗logRR to calculate the individual slope (b) for each patient. QTcI was then calculated as QTcI=QT/RR^b
ECG analysis was conducted in the primary analysis population, which included patients who had all time points collected on Holter ECG monitoring on day –1 and day 1 of cycle 1, including ECG time points collected on cycle 1 day 1 to cycle 1 day 3 at 24 or 48 hours after dosing that had available baseline comparisons. […]

CYP enzymes = conditions: in vitro, clinically relevant concentrations; cited from earlier work
[2] = test system: patients with advanced solid tumors; assay: Safety: adverse events (NCI CTCAE v4.03); format: in vivo, human
Procedure: as §1
PK parameters were calculated by noncompartmental methods using WinNonLin Professional version 6.1 (Certara, Princeton, New Jersey). The PK analysis population was defined as all patients who received at least 1 dose of sapanisertib and had sufficient concentration‐time data to calculate ≥1 PK parameters. The safety population included all patients who received ≥1 dose of sapanisertib, according to the National Cancer Institute Common Terminology Criteria for Adverse Events, version 4.03.

[3] = after 40 mg dose, 32 evaluable patients

## CC(C)n1nc(-c2ccc3oc(N)nc3c2)c2c(N)ncnc21 [sapanisertib]
[1]; 0.25 h after dose
  LSM QTcF Change (95% UCB) from time-matched baseline: –1.7 (2.2) msec
  LSM QTcI Change (95% UCB) from time-matched baseline: –2.2 (2.2) msec
  LSM heart rate change (95% UCB) from time-matched baseline: –0.2 (2.2) bpm
[1]; 0.5 h after dose
  LSM QTcF Change (95% UCB) from time-matched baseline: –5.3 (–1.5) msec
  LSM QTcI Change (95% UCB) from time-matched baseline: –8.3 (–4.0) msec
  LSM heart rate change (95% UCB) from time-matched baseline: –4.4 (–1.9) bpm
[1]; 1 h after dose
  LSM QTcF Change (95% UCB) from time-matched baseline: 1.8 msec and 1.8 (5.6) msec
  LSM QTcI Change (95% UCB) from time-matched baseline: –1.8 (2.6) msec
  LSM heart rate change (95% UCB) from time-matched baseline: –3.8 (–1.4) bpm
[1]; 1.5 h after dose
  LSM QTcF Change (95% UCB) from time-matched baseline: 0.1 (4.0) msec
  LSM QTcI Change (95% UCB) from time-matched baseline: –2.7 (1.7) msec
  LSM heart rate change (95% UCB) from time-matched baseline: –3.3 (–0.9) bpm
[1]; 2 h after dose
  LSM QTcF Change (95% UCB) from time-matched baseline: –3.7 (0.1) msec
  LSM QTcI Change (95% UCB) from time-matched baseline: –5.0 (–0.6) msec
  LSM heart rate change (95% UCB) from time-matched baseline: –0.8 (1.5) bpm
[1]; 2.5 h after dose
  LSM QTcF Change (95% UCB) from time-matched baseline: –7.4 (–3.6) msec
  LSM QTcI Change (95% UCB) from time-matched baseline: –7.6 (–3.2) msec
  LSM heart rate change (95% UCB) from time-matched baseline: 0.1 (2.5) bpm
[1]; 3 h after dose
  LSM QTcF Change (95% UCB) from time-matched baseline: –7.6 (–3.7) msec
  LSM QTcI Change (95% UCB) from time-matched baseline: –9.1 (–4.6) msec
  LSM heart rate change (95% UCB) from time-matched baseline: –0.1 (2.3) bpm
[1]; 4 h after dose
  LSM QTcF Change (95% UCB) from time-matched baseline: –8.0 (–4.2) msec
  LSM QTcI Change (95% UCB) from time-matched baseline: –7.2 (–2.9) msec
  LSM heart rate change (95% UCB) from time-matched baseline: –0.2 (2.2) bpm
[1]; 6 h after dose
  LSM QTcF Change (95% UCB) from time-matched baseline: –10.1 (–6.4) msec
  LSM QTcI Change (95% UCB) from time-matched baseline: –8.8 (–4.6) msec
  LSM heart rate change (95% UCB) from time-matched baseline: 4.8 (7.1) bpm
[1]; 8 h after dose
  LSM QTcF Change (95% UCB) from time-matched baseline: –4.2 (–0.3) msec
  LSM QTcI Change (95% UCB) from time-matched baseline: –2.2 (2.4) msec
  LSM heart rate change (95% UCB) from time-matched baseline: 6.9 (9.4) bpm
[1]; 10 h after dose
  LSM QTcF Change (95% UCB) from time-matched baseline: –12.5 (–7.1) msec
  LSM QTcI Change (95% UCB) from time-matched baseline: –6.6 (–0.5) msec
  LSM heart rate change (95% UCB) from time-matched baseline: 8.6 bpm and 8.6 (12.1) bpm
[1]; 24 h after dose
  LSM QTcF Change (95% UCB) from time-matched baseline: 0.8 (4.5) msec
  LSM QTcI Change (95% UCB) from time-matched baseline: 7.1 msec and 7.1 (11.4) msec
  LSM heart rate change (95% UCB) from time-matched baseline: 12.4 bpm and 12.4 (14.7) bpm
[1]; 48 h after dose
  LSM QTcF Change (95% UCB) from time-matched baseline: 1.2 msec and 1.2 (5.8) msec
  LSM QTcI Change (95% UCB) from time-matched baseline: 2.8 (8.1) msec
  LSM heart rate change (95% UCB) from time-matched baseline: 5.4 (8.3) bpm
[1]; 40 mg, patients with advanced solid tumors
  Clinically relevant (>20 milliseconds) effect on the QT interval: does not produce clinically relevant (ie, >20 milliseconds) effects on the QT interval
[1]; [3]
  Patients with PR >200 msec: 1 (3.1) n (%)
  Patients with QRS >110 msec: 0 (0) n (%)
  Patients with QTcF >450 msec: 2 (6.3) n (%)
  Patients with QTcF >480 msec: 0 (0) n (%)
  Patients with QTcF >500 msec: 0 (0) n (%)
  Patients with QTcI >450 msec: 6 (18.8) n (%)
  Patients with QTcI >480 msec: 1 (3.1) n (%)
  Patients with QTcI >500 msec: 0 (0) n (%)
  Patients with ΔPR >25% at any time point: 1 (3.1) n (%)
  Patients with ΔQRS >25% at any time point: 0 (0) n (%)
  Patients with ΔQTcF >30 msec at any time point: 2 (6.3) n (%)
  Patients with ΔQTcF >60 msec at any time point: 0 (0) n (%)
  Patients with ΔQTcI >30 msec at any time point: 5 (15.6) n (%)
  Patients with ΔQTcI >60 msec at any time point: 1 (3.1) n (%)
[1]; after 40 mg dose, of the 6 patients with prolonged QTcI, 32 evaluable
  Patients with ΔQTcI between 30 and 60 milliseconds: 4 patients
CYP enzymes
  Inhibition or induction of CYP enzymes: did not inhibit or induce CYP enzymes
[2]; N = 44, neither death considered related to study drug
  Patients who died during the study: Two
[2]; human, in vivo
  AE of special interest: asthenic conditions: 61%
  AE of special interest: hyperglycemia: 18%
  AE of special interest: mucosal inflammation: 25%
  AE of special interest: rash: 20%
  AE of special interest: renal insufficiency: 5%
  Dehydration, grade ≥3: 5%
  Diarrhea, grade ≥3: 5%
  Fatigue, any grade: 61%
  Fatigue, grade ≥3: 16%
  Hyperglycemia, grade ≥3: 5%
  Nausea, any grade: 80%
  Patients who experienced adverse events: 98%
  Patients with grade ≥3 AEs: 59%
  Stomatitis, grade ≥3: 5%
  Vomiting, any grade: 57%
[2]; in vivo
  Patients who discontinued study due to AEs: Four
